From patent publication US20220031684A1, “PROPHYLACTIC EFFICACY OF SEROTONIN 4 RECEPTOR AGONISTS AGAINST STRESS” (THE TRUSTEES OF COLUMBIA UNIVERSITY IN THE CITY OF NEW YORK, priority 2019, published 2022)

What was measured:
Type in all cases: in vivo
[1] = tested on: 129S6/SvEv mice; experiment: 3-shock contextual fear conditioning (CFC); conditions: for freezing at re-exposure to the training context (learned fear) vs saline: re-exposure 5 days later
Procedure: (§1) This chronic CORT elevation dysregulates the hypothalamic-pituitary-adrenal axis (HPA) in a manner similar to that observed in clinical depression. The dose and duration of CORT treatment was selected based on previous studies. CORT (35 μg/ml, equivalent to about 5 mg/kg/day) dissolved in 0.45% hydroxypropyl-o-cyclodextrin (0-CD) or vehicle (VEH) (0.45% j-CD) was available ad libitum in the drinking water in opaque bottles to protect it from light. VEH- and CORT-treated water was changed every 3 days to prevent possible degradation. Contextual Fear Conditioning (CFC): A 3-shock CFC procedure was administered as previously published. Briefly, mice were placed into context A and administered 3 2-s shocks (0.75 mA) at 180 s, 240 s or 300 s following placement into context A. Mice were removed from the context 15 s following the termination of shock (at 317 s). For context retrieval, mice were placed back into context A for 300 s. Electrophysiology: Electrophysiology was conducted as previously described. Statistical Analysis: Results from data analyses are expressed as means±SEM. Alpha was set to 0.05 for all analyses. Data were analyzed using GraphPad Prism v7.0 or v8.0. For all experiments, unless otherwise noted, one- or two-way ANOVAs with repeated-measures were applied to the data as appropriate. Significant main effects and/or interactions were followed by Fisher's PLSD post hoc analysis or unpaired t-tests. Drugs: All drugs were prepared in physiological saline and all injections were administered intraperitoneally (i.p.) in volumes of 0.1 cc per […] body weight unless otherwise noted. Fluoxetine hydrochloride (Flx): Flx (BioTrend Chemicals AG, BG197, Zurich, Germany) was administered in the drinking water (18 mg/kg/day) for 3 weeks before the start of CORT. […] (R,S)-ketamine (K): (R,S)-ketamine (Ketaset III, Ketamine HCl injection, Fort Dodge Animal Health, Fort Dodge, Iowa) was administered in a single dose at 30 mg/kg of body weight 1 week before the start of CFC. […] PF-04995274: PF-04995274 (Sigma, Catalog No. 1331782-27-4, St. Louis, Mo.) was administered a single dose at 3 or 10 mg/kg of body weight 1 week before the start of CFC. PF-04995274 was dissolved in saline using an ultrasonic homogenizer (BioLogics, Model 3000, Manassas, Va.). Osmotic minipump implantation: ALZET osmotic minipumps (Model 2004, […], 28 days) were implanted subcutaneously under isoflurane anesthesia as previously described [S2]. Osmotic minipumps were rotated under the skin two to three times per week. Behavioral Assays: All experiments were approved by the Institutional Animal Care and Use Committee (IACUC) at the New York Psychiatric Institute (NYSPI). Elevated Plus Maze (EPM): Testing was performed as previously described [S3]. Briefly, the maze is a plus-cross-shaped apparatus consisting of four arms, two open and two enclosed by walls, linked by a central platform at a height of 50 cm from the floor. Mice were individually placed in the center of the maze facing an open arm and were allowed to explore the maze for 5 min. The time spent in and the number of entries into the open arms was used as an anxiety index. Videos were scored using ANY-maze behavior tracking software (Stoelting, Wood Dale, Ill.). Novelty-Suppressed Feeding: The NSF is a conflict test that elicits competing motivations: the drive to eat and the fear of venturing into the center of a brightly lit arena. The latency to feed is used as an index of anxiety-like behavior, because classical anxiolytic drugs decrease this measure. The NSF test was carried out during an 8 min period as previously described [S3]. Briefly, the testing apparatus consisted of a plastic box (50×50×20 cm), the floor of which was covered with approximately 2 cm of bedding. For 129S6/SvEv experiments, mice were food restricted for 12 h. For the C57BL/6N experiments, mice were food restricted for 24 h. […]

[2] = tested on: 129S6/SvEv mice; experiment: Forced swim test (FST) after CFC
Procedure: as §1

[3] = tested on: 129S6/SvEv mice; experiment: Elevated plus maze (EPM) after CFC
Procedure: as §1

[4] = FIG. 3 cohort, FIG. 3G, Fisher's PLSD
[5] = female 129S6/SvEv, 1.5 or 10 mg/kg

CCCCN1CCC(CCC(=O)c2cc(Cl)c(N)cc2OC)CC1.Cl [RS-67,333, 1-(4-amino-5-chloro-2-methoxyphenyl)-3-[1(n-butyl)-4-piperidinyl]-1-propanone HCl]
p, CFC Training Freezing (min 5), Saline vs. RS67333 (1.5 mg/kg) ([1]; FIG. 3 cohort, Fisher's PLSD): 0.0117 | p, CFC Training Freezing (min 5), Saline vs. RS67333 (10 mg/kg) ([1]; FIG. 3 cohort, Fisher's PLSD): <0.0001 | p, CFC Training freezing (min 2), RS67333 (1.5 mg/kg) vs. RS67333 (10 mg/kg) ([1]; FIG. 3 cohort, Fisher's PLSD): 0.9854 | p, CFC Training freezing (min 2), Saline vs. RS67333 (1.5 mg/kg) ([1]; FIG. 3 cohort, Fisher's PLSD): 0.8966 | p, CFC Training freezing (min 2), Saline vs. RS67333 (10 mg/kg) ([1]; FIG. 3 cohort, Fisher's PLSD): 0.8719 | freezing at re-exposure to the training context ([1]; female 129S6/SvEv, 1.5 or 10 mg/kg vs saline, 5 days after CFC): comparable levels of freezing | freezing during CFC training ([1]; female 129S6/SvEv, single injection 1 week before CFC, 1.5 or 10 mg/kg vs saline): comparable levels of freezing | freezing during CFC training vs saline ([1]; male 129S6/SvEv, single i.p. injection 1 week before CFC, 30 mg/kg): significantly less freezing | freezing at re-exposure to the training context (learned fear) vs saline ([1]; male 129S6/SvEv, single i.p. injection 1 week before CFC, 1.5 mg/kg): significantly less freezing | freezing at re-exposure to the training context (learned fear) vs saline ([1]; male 129S6/SvEv, single i.p. injection 1 week before CFC, 10 mg/kg): significantly less freezing | p, FST Day 1 Immobility Time (sec), RS67333 (1.5 mg/kg) vs. RS67333 (10 mg/kg) ([2]; FIG. 2E, Fisher's LSD): 0.3430 | p, FST Day 1 Immobility Time (sec), RS67333 (1.5 mg/kg) vs. RS67333 (30 mg/kg) ([2]; FIG. 2E, Fisher's LSD): 0.5994 | p, FST Day 1 Immobility Time (sec), RS67333 (10 mg/kg) vs. RS67333 (30 mg/kg) ([2]; FIG. 2E, Fisher's LSD): 0.1099 | p, FST Day 1 Immobility Time (sec), Saline vs. RS67333 (1.5 mg/kg) ([2]; FIG. 2E, Fisher's LSD): 0.3784 | p, FST Day 1 Immobility Time (sec), Saline vs. RS67333 (10 mg/kg) ([2]; FIG. 2E, Fisher's LSD): 0.0028 | p, FST Day 1 Immobility Time (sec), Saline vs. RS67333 (30 mg/kg) ([2]; FIG. 2E, Fisher's LSD): 0.8437 | p, FST Day 2 Immobility Time (min 3-6) (sec), RS67333 (1.5 mg/kg) vs. RS67333 (10 mg/kg) [2, 4]: 0.0235 | p, FST Day 2 Immobility Time (min 3-6) (sec), Saline vs. RS67333 (1.5 mg/kg) [2, 4]: 0.4916 | p, FST Day 2 Immobility Time (min 3-6) (sec), Saline vs. RS67333 (10 mg/kg) [2, 4]: 0.1991 | immobility, FST days 1 and 2 ([2]; female 129S6/SvEv, 1.5 or 10 mg/kg vs saline): comparable levels of immobility | immobility time, FST Day 2 ([2]; male 129S6/SvEv, RS-67,333 1.5, 10 or 30 mg/kg vs saline): comparable | immobility, FST Day 1 vs saline ([2]; male 129S6/SvEv, single injection 1 week before CFC, 10 mg/kg): significantly less immobile | p, EPM Time in Open, Saline vs. RS67333 (10 mg/kg) ([3]; FIG. 2J, t-test): 0.2069 | p, EPM Entries into Open, Saline vs. RS67333 (10 mg/kg) ([3]; FIG. 2K, t-test): 0.3584 | entries into the open arms of the EPM [3, 5]: comparable | time spent in the open arms of the EPM [3, 5]: comparable | entries into the open arms of the EPM vs saline ([3]; male 129S6/SvEv, 10 mg/kg): neither in the open arms nor entries into the open arms of the maze was significantly different | time in the open arms of the EPM vs saline ([3]; male 129S6/SvEv, 10 mg/kg): neither in the open arms nor entries into the open arms of the maze was significantly different
